According to the supplement of paper PMC4932681:

Columns and labels:
BT-474 Tam1 [1] = experiment: drug sensitivity score (DSS) (DSS (dimensionless)); higher = more sensitive; extreme values may be limits of the assay; details: 4-OH-tamoxifen in medium 1 µM; 72 h
Method in brief: (§1)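 Drug sensitivity score, relative IC50 as the curve midpoint, and top-dose inhibition were derived from logistic dose–response fits in the Breeze pipeline. These fits used CellTiter-Glo viability, read on a PHERAstar and normalised to vehicle-only and positive controls. Breast cancer cell lines and resistant derivatives had been incubated for 72 h at 37 °C in 384-well plates holding library drugs at five concentrations spanning a 10 000-fold range. Resistant lines were grown in medium with 1 μM of the selecting drug.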

BT-474 Tam2 [2] = experiment: as above; details: 4-OH-tamoxifen in medium 1 µM; 72 h
Method in brief: as §1

BT-474 [3] = experiment: as above; details: 72 h
Method in brief: as §1

MCF-7 Tam1 [4] = experiment: as above; details: 4-OH-tamoxifen in medium 1 µM; 72 h
Method in brief: as §1

MCF-7 [5] = experiment: as above; details: 72 h
Method in brief: as §1

T-47D Tam1 [6] = experiment: as above; details: 4-OH-tamoxifen in medium 1 µM; 72 h
Method in brief: as §1

T-47D Tam2 [7] = experiment: as above; details: 4-OH-tamoxifen in medium 1 µM; 72 h
Method in brief: as §1

T-47D [8] = experiment: as above; details: 72 h
Method in brief: as §1

ZR-75-1 Tam1 [9] = experiment: as above; details: 4-OH-tamoxifen in medium 1 µM; 72 h
Method in brief: as §1

ZR-75-1 Tam2 [10] = experiment: as above; details: 4-OH-tamoxifen in medium 1 µM; 72 h
Method in brief: as §1

ZR-75-1 [11] = experiment: as above; details: 72 h
Method in brief: as §1

BT-474 Tam1 [12] = experiment: relative IC50 (midpoint of fitted logistic curve, plateau may be below 50% inhibition; CellTiter-Glo viability); higher = less potent; details: 4-OH-tamoxifen in medium 1 µM; 72 h
Method in brief: as §1

BT-474 Tam2 [13] = experiment: as above; details: 4-OH-tamoxifen in medium 1 µM; 72 h
Method in brief: as §1

BT-474 [14] = experiment: as above; details: 72 h
Method in brief: as §1

MCF-7 [15] = experiment: as above; details: 72 h
Method in brief: as §1

T-47D Tam1 [16] = experiment: as above; details: 4-OH-tamoxifen in medium 1 µM; 72 h
Method in brief: as §1

T-47D Tam2 [17] = experiment: as above; details: 4-OH-tamoxifen in medium 1 µM; 72 h
Method in brief: as §1

T-47D [18] = experiment: as above; details: 72 h
Method in brief: as §1

ZR-75-1 Tam1 [19] = experiment: as above; details: 4-OH-tamoxifen in medium 1 µM; 72 h
Method in brief: as §1

ZR-75-1 Tam2 [20] = experiment: as above; details: 4-OH-tamoxifen in medium 1 µM; 72 h
Method in brief: as §1

ZR-75-1 [21] = experiment: as above; details: 72 h
Method in brief: as §1

MCF-7 Tam1 [22] = experiment: as above; details: 4-OH-tamoxifen in medium 1 µM; 72 h
Method in brief: as §1

SMILES	drug sensitivity score (BT-474 Tam1 [1])	drug sensitivity score (BT-474 Tam2 [2])	drug sensitivity score (BT-474 [3]; 4-OH-tamoxifen in medium 0 µM)	drug sensitivity score (BT-474 [3]; 4-OH-tamoxifen in medium 1 µM)	drug sensitivity score (MCF-7 Tam1 [4])	drug sensitivity score (MCF-7 [5]; 4-OH-tamoxifen in medium 0 µM)	drug sensitivity score (MCF-7 [5]; 4-OH-tamoxifen in medium 1 µM)	drug sensitivity score (T-47D Tam1 [6])	drug sensitivity score (T-47D Tam2 [7])	drug sensitivity score (T-47D [8]; 4-OH-tamoxifen in medium 0 µM)	drug sensitivity score (T-47D [8]; 4-OH-tamoxifen in medium 1 µM)	drug sensitivity score (ZR-75-1 Tam1 [9])	drug sensitivity score (ZR-75-1 Tam2 [10])	drug sensitivity score (ZR-75-1 [11]; 4-OH-tamoxifen in medium 0 µM)	drug sensitivity score (ZR-75-1 [11]; 4-OH-tamoxifen in medium 1 µM)	relative IC50 (BT-474 Tam1 [12]) [nM]	relative IC50 (BT-474 Tam2 [13]) [nM]	relative IC50 (BT-474 [14]; 4-OH-tamoxifen in medium 0 µM) [nM]	relative IC50 (BT-474 [14]; 4-OH-tamoxifen in medium 1 µM) [nM]	relative IC50 (MCF-7 [15]; 4-OH-tamoxifen in medium 0 µM) [nM]	relative IC50 (MCF-7 [15]; 4-OH-tamoxifen in medium 1 µM) [nM]	relative IC50 (T-47D Tam1 [16]) [nM]	relative IC50 (T-47D Tam2 [17]) [nM]	relative IC50 (T-47D [18]; 4-OH-tamoxifen in medium 0 µM) [nM]	relative IC50 (T-47D [18]; 4-OH-tamoxifen in medium 1 µM) [nM]	relative IC50 (ZR-75-1 Tam1 [19]) [nM]	relative IC50 (ZR-75-1 Tam2 [20]) [nM]	relative IC50 (ZR-75-1 [21]; 4-OH-tamoxifen in medium 0 µM) [nM]	relative IC50 (ZR-75-1 [21]; 4-OH-tamoxifen in medium 1 µM) [nM]	relative IC50 (MCF-7 Tam1 [22]) [nM]
O=C(/C=C/c1cccc(S(=O)(=O)Nc2ccccc2)c1)NO [Belinostat  (PXD101)]	10.5	9.18	12.8	16.8	2.18	14.7	12.7	9.66	7.43	12	11.9	4.54	6.02	4.2	3.84	958	870	547	354	363	554	1260	1180	795	857	964	833	791	1200	
Cc1c(N)nc([C@H](CC(N)=O)NC[C@H](N)C(N)=O)nc1C(=O)N[C@H](C(=O)N[C@H](C)[C@@H](O)[C@H](C)C(=O)N[C@H](C(=O)NCCc1nc(-c2nc(C(=O)NCCC[S+](C)C)cs2)cs1)[C@@H](C)O)[C@@H](OC1OC(CO)C(O)C(O)C1OC1OC(CO)C(O)C(OC(N)=O)C1O)c1cnc[nH]1 (some centres not stated) [Bleomycin]	0	0	0	0	0	0.0343	0.0155	1.38	0	0.51	0	0.117	0	0.615	0	> 10000	> 10000	> 10000	> 10000				> 10000		> 10000		> 10000		> 10000	> 10000
C=CC(=O)Nc1cc2c(Nc3ccc(F)c(Cl)c3)ncnc2cc1OCCCN1CCOCC1 [Canertinib]	34.2	31.6	24.8	33.6	1.4	6.68	6.46	6.06	5.77	3.92	0.761	2.99	2.58	3	3.11	11.7	18.6	31.3	12.4	1290	1640	513	1580	1230		1740	2780	2090	1510	
CNC(=O)c1ccc(N2C(=S)N(c3ccc(C#N)c(C(F)(F)F)c3)C(=O)C2(C)C)cc1F [Enzalutamide (MDV 3100)]	0	0.634	0	0	0	0	0.74	0	0	0	0	0	0	0	0			> 10000	> 10000	> 10000			> 10000	> 10000	> 10000	> 10000	> 10000	> 10000	> 10000	> 10000
CCCCCCCCc1ccc(CCC(N)(CO)CO)cc1 [Fingolimod]	4.13	4.99	4.44	4.21	0.0112	5.74	3.17	2.83	2.59	2.91	4.24	2.18	2.69	1.58	2.36	4130	3390	3770	4050	2890	3910	3780	3860	4090	3840	3370	3490	3930	3710	
O=C(Cc1ccc(-c2ccc(OCCN3CCOCC3)cc2)cn1)NCc1ccccc1 [KX2-391]	22	19.7	12.3	21.8	0	11.2	10.5	10.6	11.3	2.76	4.36	3.06	4.76	11.5	4.21	80.2	155	53.6	78	86.8	189	498	91.9	1600		2190	1110	53.1	779	
CCNC(=O)c1noc(-c2cc(C(C)C)c(O)cc2O)c1-c1ccc(CN2CCOCC2)cc1 [NVP-AUY922]	22.9	16.8	14.7	26.5	3.94	16.7	7.64	8.46	13.5	14.3	14.1	6.14	9.04	6.75	7.06	3.5	10.2	4.12	2.25	6.59	41.2	37.2	10.4	19.9	8.93	22.5	21.1	18.6	40.4	
Cc1[nH]c2ccccc2c1CCNCc1ccc(/C=C/C(=O)NO)cc1 [Panobinostat]	19.8	17.2	17.8	23.3	1.73	16.3	15.2	12.7	8.64	15.5	15.9	5.02	7.47	8.15	4.19	17.1	22	19.7	10.6	28.7	35.2	47.5	87.6	44.7	40.8	64.7	49.6	32.7	81.7	
Cn1c(Nc2ccc(C(F)(F)F)cc2)nc2cc(Oc3ccnc(-c4ncc(C(F)(F)F)[nH]4)c3)ccc21 [RAF265]	0	0	0	0	0	0	0	8.26	0	0.294	0	0	0.002	0	0	> 1000	> 1000	> 1000	> 1000	> 1000	> 1000		> 1000		> 1000	> 1000		> 1000	> 1000	> 1000
CN1CCN(c2nc(C3=C(c4c[nH]c5ccccc45)C(=O)NC3=O)c3ccccc3n2)CC1 [Sotrastaurin]	6.13	1.44	0	10.6	0	0.517	0	0	0	0	0	0	0	0	0	1540		> 10000	51.5				> 10000	> 10000	> 10000	> 10000	> 10000	> 10000	> 10000	> 10000
CCCCC(=O)OCC(=O)[C@]1(O)Cc2c(O)c3c(c(O)c2[C@@H](O[C@H]2C[C@H](NC(=O)C(F)(F)F)[C@H](O)[C@H](C)O2)C1)C(=O)c1c(OC)cccc1C3=O [Valrubicin]	4.26	2.37	2.57	4.06	0.994	5.32	8.1	7.66	6.34	7.72	5.96	7.34	9.1	8.2	5.85	3120	4180	2640	3340	1450	1270	1100	1380	768	1530	1280	1130	554	1320	
CC[C@]1(O)C[C@@H]2CN(CCc3c([nH]c4ccccc34)[C@@](C(=O)OC)(c3cc4c(cc3OC)N(C)[C@H]3[C@@](O)(C(=O)OC)[C@H](OC(C)=O)[C@]5(CC)C=CCN6CC[C@]43[C@@H]65)C2)C1 [Vinblastine]	13.1	17.1	13.2	21.5	0.0008	12.8	12.5	6.59	8.2	2.77	0.561	1.94	3.58	11.9	2.61	48.1	24.4	3.77	9.7	9.94	13.8	69.2	44.2	113		214	78.9	4.23	174	
O=C(CCCCCCC(=O)Nc1ccccc1)NO [Vorinostat]	6.36	7.23	5.53	10.5	0.897	8.23	8.2	5.24	2.19	5.73	4.3	3.29	2.51	1.99	1.27	2430	1890	2310	1090	1430	1330	1650	3060	2630	3670	1650	2270	2900	3660	
Oc1nc(-c2ccc(C(F)(F)F)cc2)nc2c1CSCC2 [XAV-939]	0	3.71	0	0	0	0	0.115	3.2	0	0	0	0	0.39	0	0	> 10000		> 10000	> 10000	> 10000			> 10000	> 10000	> 10000	> 10000		> 10000	> 10000	> 10000
